Measured values from PMC11396129, “Oxindole–benzothiazole hybrids as CDK2 inhibitors and anticancer agents: design, synthesis and biological evaluation” (BMC Chemistry, 2024).

Legend:
Type in all cases: cell-based, human
[1] = tested on: LOX IMVI; test: NCI 60 panel growth inhibition (SRB), melanoma; settings: 10 μM
Protocol: (§1) Screening of cytotoxic activity against a panel of sixty human tumor cell lines The selected compounds by NCI were evaluated for their anticancer activity in a two- stage process. […] Then, the output from the single dose screen is reported as a mean graph. […] Assay protocol. […] For a typical screening experiment, cells are inoculated into 96 well microtiter plates in 100 µL at plating densities ranging from 5000 to 40,000 cells/well depending on the doubling time of individual cell lines. […] After 24 h, two plates of each cell line are fixed in situ with TCA, to represent a measurement of the cell population for each cell line at the time of drug addition (Tz). The experimental drugs are solubilized in dimethyl sulfoxide at 400-fold the desired final maximum test concentration and stored frozen prior to use. At the time of drug addition, an aliquot of frozen concentrate is thawed and diluted to twice the desired final maximum test concentration with complete medium containing 50 µg/mL gentamicin. Additional four, 10-fold or ½ log serial dilutions are made to provide a total of five drug concentrations plus control. […] For adherent cells, the assay is terminated by the addition of cold TCA. […] The supernatant is discarded, and the plates are washed five times with tap water and air dried. […] Using the seven absorbance measurements [time zero, (Tz), control growth, (C), and test growth in the presence of drug at the five concentration levels (Ti)], the percentage growth is calculated at each of the drug concentrations levels. Percentage growth inhibition is calculated as: [(Ti Tz)/(C–Tz)] x 100 for concentrations for which Ti>/=Tz and [(Ti-Tz)/Tz] x 100 for concentrations for which Ti < Tz. Three dose response parameters are calculated for each experimental agent. […] The drug concentration resulting in total growth inhibition (TGI) is calculated from Ti = Tz. […] Values are calculated for each of these three parameters if the level of activity is reached; however, if the effect is not reached or is exceeded, the value for that parameter is expressed as greater or less than the maximum or minimum concentration tested.

[2] = tested on: UACC-257; test: NCI 60 panel growth inhibition (SRB), melanoma; settings: UACC-257, 10 μM
Protocol: as §1

[3] = tested on: M14; test: NCI 60 panel growth inhibition (SRB), melanoma; settings: M14, 10 μM
Protocol: as §1

[4] = tested on: SK-MEL-28; test: NCI 60 panel growth inhibition (SRB), melanoma; settings: SK-MEL-28, 10 μM
Protocol: as §1

[5] = tested on: SK-MEL-5; test: NCI 60 panel growth inhibition (SRB), melanoma; settings: SK-MEL-5, 10 μM
Protocol: as §1

[6] = tested on: UACC-62; test: NCI 60 panel growth inhibition (SRB), melanoma; settings: UACC-62, 10 μM
Protocol: as §1

[7] = tested on: OVCAR-5; test: NCI 60 panel growth inhibition (SRB), ovarian cancer; settings: OVCAR-5, 10 μM
Protocol: as §1

[8] = tested on: NCI/ADR-RES; test: as above; settings: 10 μM
Protocol: as §1

[9] = tested on: IGROV1; test: as above; settings: IGROV1, 10 μM
Protocol: as §1

[10] = tested on: OVCAR-8; test: as above; settings: OVCAR-8, 10 μM
Protocol: as §1

[11] = tested on: OVCAR-4; test: as above; settings: OVCAR-4, 10 μM
Protocol: as §1

[12] = tested on: SK-OV-3; test: as above; settings: SK-OV-3, 10 μM
Protocol: as §1

[13] = tested on: OVCAR-3; test: as above; settings: OVCAR-3, 10 μM
Protocol: as §1

[14] = tested on: CCRF-CEM; test: NCI 60 panel growth inhibition (SRB), leukemia; settings: 10 μM
Protocol: as §1

[15] = tested on: RPMI-8226; test: NCI 60 panel growth inhibition (SRB), leukemia; settings: RPMI-8226, 10 μM
Protocol: as §1

[16] = tested on: SR; test: NCI 60 panel growth inhibition (SRB), leukemia; settings: 10 μM
Protocol: as §1

[17] = tested on: HL-60(TB); test: NCI 60 panel growth inhibition (SRB), leukemia; settings: HL-60(TB), 10 μM
Protocol: as §1

[18] = tested on: MOLT-4; test: NCI 60 panel growth inhibition (SRB), leukemia; settings: MOLT-4, 10 μM
Protocol: as §1

[19] = tested on: K-562; test: NCI 60 panel growth inhibition (SRB), leukemia; settings: K-562, 10 μM
Protocol: as §1

[20] = tested on: DU-145; test: NCI 60 panel growth inhibition (SRB), prostate cancer; settings: DU-145, 10 μM
Protocol: as §1

[21] = tested on: A498; test: NCI 60 panel growth inhibition (SRB), renal cancer; settings: A498, 10 μM
Protocol: as §1

[22] = tested on: TK-10; test: NCI 60 panel growth inhibition (SRB), renal cancer; settings: TK-10, 10 μM
Protocol: as §1

[23] = tested on: UO-31; test: NCI 60 panel growth inhibition (SRB), renal cancer; settings: UO-31, 10 μM
Protocol: as §1

[24] = tested on: RXF 393; test: NCI 60 panel growth inhibition (SRB), renal cancer; settings: RXF 393, 10 μM
Protocol: as §1

[25] = tested on: 786-0; test: NCI 60 panel growth inhibition (SRB), renal cancer; settings: 786-0, 10 μM
Protocol: as §1

[26] = tested on: ACHN; test: NCI 60 panel growth inhibition (SRB), renal cancer; settings: 10 μM
Protocol: as §1

[27] = tested on: SN12C; test: NCI 60 panel growth inhibition (SRB), renal cancer; settings: 10 μM
Protocol: as §1

[28] = tested on: CAKI-1; test: NCI 60 panel growth inhibition (SRB), renal cancer; settings: CAKI-1, 10 μM
Protocol: as §1

[29] = tested on: BT-549; test: NCI 60 panel growth inhibition (SRB), breast cancer; settings: BT-549, 10 μM
Protocol: as §1

[30] = tested on: MCF7; test: as above; settings: MCF7, 10 μM
Protocol: as §1

[31] = tested on: MDA-MB-468; test: as above; settings: MDA-MB-468, 10 μM
Protocol: as §1

[32] = tested on: HS 578T; test: as above; settings: 10 μM
Protocol: as §1

[33] = tested on: T-47D; test: as above; settings: 10 μM
Protocol: as §1

[34] = tested on: MDA-MB-231/ATCC; test: as above; settings: 10 μM
Protocol: as §1

[35] = tested on: PC-3; test: NCI 60 panel growth inhibition (SRB), prostate cancer; settings: PC-3, 10 μM
Protocol: as §1

Row | SMILES | GI% [1] [%] | GI% [2] | GI% [3] | GI% [4] | GI% [5] | GI% [6] | GI% [7] | GI% [8] [%] | GI% [9] | GI% [10] | GI% [11] | GI% [13] | GI% [14] | GI% [15] | GI% [16] | GI% [17] | GI% [18] | GI% [19] | GI% [20] | GI% [21] | further results
1 | O=C(COc1ccccc1-c1nc2ccccc2s1)NN=C1C(=O)Nc2ccc(Cl)cc21 [Compound 9e, 2-(2-(Benzo[d]thiazol-2-yl)phenoxy)-N′-(5-chloro-2-oxoindolin-3-ylidene)acetohydrazide] | 8.86 | – (GI% < 5%) | – (GI% < 5%) | – (GI% < 5%) | 5.89% | 10.86% | – (GI% < 5%) | 6.89 | – (GI% < 5%) | – (GI% < 5%) | – (GI% < 5%) | – (GI% < 5%) | –^a (GI% < 5%) | – (GI% < 5%) | 6.46% | – (GI% < 5%) | – (GI% < 5%) | – (GI% < 5%) | – (GI% < 5%) | – (GI% < 5%) | GI% [12]: – (GI% < 5%); GI% [22]: – (GI% < 5%); GI% [23]: – (GI% < 5%); GI% [24]: – (GI% < 5%); GI% [25]: – (GI% < 5%); GI% [26]: 18.45%; GI% [27]: 8.28%; GI% [28]: 6.21%; GI% [29]: – (GI% < 5%); GI% [30]: 15.86%; GI% [31]: 5.76%; GI% [32]: – (GI% < 5%); GI% [33]: – (GI% < 5%); GI% [34]: 15.59%
2 | COc1cccc(-c2nc3ccccc3s2)c1OCC(=O)NN=C1C(=O)Nc2ccc(Cl)cc21 [Compound 9k, 2-(2-(Benzo[d]thiazol-2-yl)-6-methoxyphenoxy)-N′-(5-chloro-2-oxoindolin-3-ylidene)acetohydrazide] | 13.16 | – (GI% < 5%) | – (GI% < 5%) | – (GI% < 5%) | 23.55% | 32.61% | 8.99% | 20.56 | – (GI% < 5%) | 12.69% | 13.16% | – (GI% < 5%) | 24.47% | 29.96% | 17.83% | 6.09% | 43.70% | 29.20% | – (GI% < 5%) | – (GI% < 5%) | GI% [12]: – (GI% < 5%); GI% [22]: – (GI% < 5%); GI% [23]: 33.24%; GI% [24]: 37.81%; GI% [25]: 22.12%; GI% [26]: 26.60%; GI% [27]: 14.00%; GI% [28]: 39.78%; GI% [29]: 7.55%; GI% [30]: 35.93%; GI% [31]: 27.13%; GI% [32]: 8.19%; GI% [33]: 40.62%; GI% [34]: 19.83%
3 | COc1ccc(-c2nc3ccccc3s2)cc1OCC(=O)NN=C1C(=O)Nc2ccc(Br)cc21 [Compound 9r, 2-(5-(Benzo[d]thiazol-2-yl)-2-methoxyphenoxy)-N′-(5-bromo-2-oxoindolin-3-ylidene)acetohydrazide] | 38.27 | – (GI% < 5%) | 9.47% | – (GI% < 5%) | – (GI% < 5%) | – (GI% < 5%) | – (GI% < 5%) | 27.04 | – (GI% < 5%) | 38.56% | – (GI% < 5%) | – (GI% < 5%) | 42.87% | 19.17% | – (GI% < 5%) | – (GI% < 5%) | 13.12% | 24.52% | – (GI% < 5%) | – (GI% < 5%) | GI% [35]: 16.13%; GI% [22]: 36.32%; GI% [23]: 15.64%; GI% [24]: 15.08%; GI% [25]: 20.37%; GI% [26]: 30.78%; GI% [27]: 20.61%; GI% [28]: 29.61%; GI% [29]: 21.16%; GI% [30]: 35.42%; GI% [31]: – (GI% < 5%); GI% [32]: 46.81%; GI% [34]: 42.55%
